Earlier results as cited in patent publication US20070149578A1, “Combination Therapy” (Pfizer, Inc., priority 2000, published 2007).

Tests used:
[1] = system: calcium channel; conditions: see International Patent Application Number PCT/EP94/02697
[2] = system: smooth muscle cell migration; conditions: see International Patent Application Number PCT/EP95/00847

Compound	calcium channel blocking activity [1]	inhibitor of smooth muscle cell migration [2]
CCOC(=O)C1=C(COCCN)NC(C)=C(C(=O)OC)[C@@H]1c1ccccc1Cl (single isomer, unassigned) [S(−) isomer]	substantially confined to the S(−) isomer	–
CCOC(=O)C1=C(COCCN)NC(C)=C(C(=O)OC)[C@H]1c1ccccc1Cl (single isomer, unassigned) [R(+) isomer]	little or no calcium channel blocking activity	potent inhibitor
